molecular target: T1, human CCR6 (Homo sapiens, UniProt P51684); test: human CCR6 calcium flux activity (FLIPR, HEK293 cells stably expressing human CCR6, CCL20 stimulation); type: cell-based; conditions: HEK293 cells stably expressing human CCR6, EC80 human MIP-3 alpha/CCL20; read-out: CCR6 inhibitory activity, IC50
T1 construct: expressed in transfected cells; host or cells: HEK293
T1 sequence (P51684 1-374): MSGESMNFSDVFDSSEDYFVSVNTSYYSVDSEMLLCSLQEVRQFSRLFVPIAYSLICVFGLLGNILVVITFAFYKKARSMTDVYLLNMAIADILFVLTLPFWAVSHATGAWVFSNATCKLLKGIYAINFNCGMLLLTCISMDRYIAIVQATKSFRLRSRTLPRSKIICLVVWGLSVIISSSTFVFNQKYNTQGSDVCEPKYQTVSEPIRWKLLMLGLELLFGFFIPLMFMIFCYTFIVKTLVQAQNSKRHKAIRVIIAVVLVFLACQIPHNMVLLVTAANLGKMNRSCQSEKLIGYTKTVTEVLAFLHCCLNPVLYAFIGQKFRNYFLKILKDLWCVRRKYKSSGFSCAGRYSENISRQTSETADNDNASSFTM
Method: The activity of the compounds was evaluated using HEK293 cells stably expressing human CCR6 via the FLIPR platform. A 384-well black cell culture plate (Greiner, 781946) was used, with a seeding density of 20,000 cells/well, and incubated overnight at 37°C in a 5% CO2 incubator. The culture medium in the cell plate wells was removed, and 20 µL of Fluo-4 Direct™ Calcium Assay Buffer (Invitrogen, F10471, Component C), 20 µL of 2× Fluo-4 Direct™ Calcium Assay Reagent (Invitrogen, F10471, Component A) working solution, and 10 µL of 6× test compound working solution were sequentially added to each well. The cell plate was incubated in a 37 °C, 5% CO2 incubator for 50 min, followed by a 10 min incubation at room temperature. Additionally, a 6×EC80 human MIP-3 alpha/CCL20 (MCE, HY-P7262) working solution was prepared. After the incubation was completed, 10 µL/well of the 6×EC80 human MIP-3 alpha/CCL20 working solution was transferred to the cell plate using a FLIPR instrument, and the fluorescence signal changes at an excitation wavelength of 494 nm and an emission wavelength of 516 nm were recorded over 90 seconds. The difference between the maximum fluorescence signal (RFUMax) and the minimum fluorescence signal (RFUMin) was used as the output signal. The compound inhibition rate and the log value of the compound concentration were calculated, and a four-parameter fitting analysis was performed using GraphPad Prism 8 software to obtain the IC50 value of the test compound.

Going from Cc1cccnc1[C@H](Nc1c(Nc2ccc(F)c(C(=O)N(C)C)c2O)c(=O)c1=O)C1(C)CCCC1 [compound 104, (R)-6-fluoro-2-hydroxy-N,N-dimethyl-3-((2-(((1-methylcyclopentyl)(3-methylpyridin-2-yl)methyl)amino)-3,4-dioxocyclobut-1-en-1-yl)amino)benzamide] to CN(C)C(=O)c1nccc(Nc2c(N[C@@H](c3ncccc3F)C3(C)CCCC3)c(=O)c2=O)c1O [compound 001, (R)-4-((2-(((3-fluoropyridin-2-yl)(1-methylcyclopentyl)methyl)amino)-3,4-dioxocyclobut-1-en-1-yl)amino)-3-hydroxy-N,N-dimethylpicolinamide], the IC50 falls from 4 nM to 2.4 nM (1.7-fold). The second is the more potent here.

First: CN(C)C(=O)c1nccc(Nc2c(N[C@@H](c3nccc(F)c3F)C3(C)CCCC3)c(=O)c2=O)c1O [compound 021, (R)-4-((2-(((3,4-difluoropyridin-2-yl)(1-methylcyclopentyl)methyl)amino)-3,4-dioxocyclobut-1-en-1-yl)amino)-3-hydroxy-N,N-dimethylpicolinamide]
Second: Cc1c(Cl)ccnc1[C@H](Nc1c(Nc2ccnc(C(=O)N(C)C)c2O)c(=O)c1=O)C1(C)CCCC1 [compound 048, (R)-4-((2-(((4-chloro-3-methylpyridin-2-yl)(1-methylcyclopentyl)methyl)amino)-3,4-dioxocyclobut-1-en-1-yl)amino)-3-hydroxy-N,N-dimethylpicolinamide]
The IC50 of the first is 9.5-fold lower: 6.4 nM for the first, 60.8 nM for the second. The first is the more potent here.

Compared with CN(C)C(=O)c1nccc(Nc2c(N[C@@H](c3cccc(C(F)(F)F)n3)C3(C)CCCC3)c(=O)c2=O)c1O [compound 008, (R)-3-hydroxy-N,N-dimethyl-4-((2-(((1-methylcyclopentyl)(6-(trifluoromethyl)pyridin-2-yl)methyl)amino)-3,4-dioxocyclobut-1-en-1-yl)amino)picolinamide], CN(C)C(=O)c1nccc(Nc2c(N[C@@H](c3cc(Cl)ccn3)C3(C)CCCC3)c(=O)c2=O)c1O [compound 012, (R)-4-((2-(((4-chloropyridin-2-yl)(1-methylcyclopentyl)methyl)amino)-3,4-dioxocyclobut-1-en-1-yl)amino)-3-hydroxy-N,N-dimethylpicolinamide] is 17-fold lower in IC50: 151 nM for the first, 9 nM for the second.

Compared with CC(C)[C@H](Nc1c(Nc2ccnc(C(=O)N(C)C)c2O)c(=O)c1=O)C1(C)CCCC1 [compound 038, (S)-3-hydroxy-N,N-dimethyl-4-((2-((2-methyl-1-(1-methylcyclopentyl)propyl)amino)-3,4-dioxocyclobut-1-en-1-yl)amino)picolinamide], CN(C)C(=O)c1nccc(Nc2c(NC(C(=O)C3CC3)C3(C)CCCC3)c(=O)c2=O)c1O (centres unmarked) [compound 034, 4-((2-((2-cyclopropyl-1-(1-methylcyclopentyl)-2-oxoethyl)amino)-3,4-dioxocyclobut-1-en-1-yl)amino)-3-hydroxy-N,N-dimethylpicolinamide] is 7.8-fold higher in IC50: 113 nM for the first, 887 nM for the second. The first is the more potent here.

Cc1cccnc1C(Nc1c(Nc2ccnc(C(=O)N(C)C)c2O)c(=O)c1=O)C1(C)CC2CC2C1 (centres unmarked) [compound 122, 3-hydroxy-N,N-dimethyl-4-((2-(((3-methylbicyclo[3.1.0]hexan-3-yl)(3-methylpyridin-2-yl)methyl)amino)-3,4-dioxocyclobut-1-en-1-yl)amino)picolinamide] and Cc1cncnc1C(Nc1c(Nc2ccnc(C(=O)N(C)C)c2O)c(=O)c1=O)C1(C)CCCC1 (centres unmarked) [compound 052, 3-hydroxy-N,N-dimethyl-4-((2-(((1-methylcyclopentyl)(5-methylpyrimidin-4-yl)methyl)amino)-3,4-dioxocyclobut-1-en-1-yl)amino)picolinamide] are within 1.5-fold of each other in IC50: 181 nM for the first, 196 nM for the second.

Compared with CN(C)C(=O)c1nccc(Nc2c(NC(c3nn(C)c4c3COC4)C3(C)CCCC3)c(=O)c2=O)c1O (centres unmarked) [compound 027, 3-hydroxy-N,N-dimethyl-4-((2-(((1-methyl-4,6-dihydro-1H-furo[3,4-c]pyrazol-3-yl)(1-methylcyclopentyl)methyl)amino)-3,4-dioxocyclobut-1-en-1-yl)amino)picolinamide], Cc1c(C(Nc2c(Nc3ccnc(C(=O)N(C)C)c3O)c(=O)c2=O)C2(C)CCCC2)nn2c1CCC2 (centres unmarked) [compound 029, 3-hydroxy-N,N-dimethyl-4-((2-(((3-methyl-5,6-dihydro-4H-pyrrolo[1,2-b]pyrazol-2-yl)(1-methylcyclopentyl)methyl)amino)-3,4-dioxocyclobut-1-en-1-yl)amino)picolinamide] is 8.5-fold lower in IC50: 1370 nM for the first, 161 nM for the second. The second is the more potent here.

Compared with CN(C)C(=O)c1nccc(Nc2c(N[C@@H](c3cnccn3)C3(C)CCCC3)c(=O)c2=O)c1O [compound 006, (R)-3-hydroxy-N,N-dimethyl-4-((2-(((1-methylcyclopentyl)(pyrazin-2-yl)methyl)amino)-3,4-dioxocyclobut-1-en-1-yl)amino)picolinamide], Cc1cnc([C@H](Nc2c(Nc3ccnc(C(=O)N(C)C)c3O)c(=O)c2=O)C2(C)CCCC2)c(C)c1 [compound 061, (R)-4-((2-(((3,5-dimethylpyridin-2-yl)(1-methylcyclopentyl)methyl)amino)-3,4-dioxocyclobut-1-en-1-yl)amino)-3-hydroxy-N,N-dimethylpicolinamide] is 2.1-fold higher in IC50: 74 nM for the first, 152 nM for the second.

Compared with CN(C)C(=O)c1nccc(Nc2c(N[C@@H](c3ncc(F)cc3Cl)C3(C)CCCC3)c(=O)c2=O)c1O [compound 011, (R)-4-((2-(((3-chloro-5-fluoropyridin-2-yl)(1-methylcyclopentyl)methyl)amino)-3,4-dioxocyclobut-1-en-1-yl)amino)-3-hydroxy-N,N-dimethylpicolinamide], CC(C)N(C)C(=O)c1nccc(Nc2c(N[C@@H](c3ncccc3F)C3(C)CCCC3)c(=O)c2=O)c1O [compound 026, (R)-4-((2-(((3-fluoropyridin-2-yl)(1-methylcyclopentyl)methyl)amino)-3,4-dioxocyclobut-1-en-1-yl)amino)-3-hydroxy-N-isopropyl-N-methylpicolinamide] is 32-fold lower in IC50: 22.5 nM for the first, 0.7 nM for the second. The second is the more potent here.

Cc1cccnc1[C@H](Nc1c(Nc2ccnc(C(=O)N3CCOCC3)c2O)c(=O)c1=O)C1(C)CCCC1 [compound 059, (R)-3-((3-hydroxy-2-(morpholine-4-carbonyl)pyridin-4-yl)amino)-4-(((1-methylcyclopentyl)(3-methylpyridin-2-yl)methyl)amino)cyclobut-3-ene-1,2-dione] was tested, and the IC50 was 13.6 nM.
